# Earlier results in US20150190345A1, “Controlled Release Formulations of Lorazepam” (priority 2014, published 2015).
# Tests used:
# [1] = according to the package insert
smiles,measurement,setting,value
"O=C1Nc2ccc(Cl)cc2C(c2ccccc2Cl)=NC1O (centres unmarked) [Lorazepam, 7-chloro-5-(2-chlorophenyl)-1,3-dihydro-3-hydroxy-2H-1,4-benzodiazepin-2-one]",half-life in human plasma,[1],about 12 hours
same,solubility in water,,almost insoluble in water
